From US7557098B2, “1-aryl- or 1-alkylsulfonyl-heterocyclylbenzazoles as 5-hydroxytryptamine-6 ligands” (Wyeth, priority 2000, dated 2009)
Structures can show the parent of a compound that is named as a salt. Where two headings read alike, the source gives them in different places.

Assays:
[1] = target: T1, human cloned 5-HT6 receptors (Homo sapiens, UniProt P50406); experiment: 5-HT6 binding affinity, [3H]-LSD displacement on membranes of Hela cells expressing human cloned 5-HT6 receptors
T1 construct: expressed in transfected cells; host or cells: Hela cells
T1 sequence (P50406 whole entry): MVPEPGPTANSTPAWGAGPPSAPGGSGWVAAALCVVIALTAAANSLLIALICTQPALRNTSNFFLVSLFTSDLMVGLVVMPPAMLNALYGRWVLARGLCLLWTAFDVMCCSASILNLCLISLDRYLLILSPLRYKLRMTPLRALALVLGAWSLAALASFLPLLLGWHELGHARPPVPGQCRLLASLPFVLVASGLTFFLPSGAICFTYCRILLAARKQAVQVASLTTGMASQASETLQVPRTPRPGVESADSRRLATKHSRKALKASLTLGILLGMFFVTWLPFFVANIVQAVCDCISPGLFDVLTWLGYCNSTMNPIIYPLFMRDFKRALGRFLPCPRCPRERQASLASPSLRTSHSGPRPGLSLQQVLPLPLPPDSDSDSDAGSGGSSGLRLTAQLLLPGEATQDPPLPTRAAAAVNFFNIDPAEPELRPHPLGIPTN

[2] = [3H]-LSD 3.0 nM, Hela cell membranes, 120 min at room temperature, read-out: 5-HT6 binding Ki

SMILES	Ki [1, 2] [µM]	melting point [°C]	Ki [1] [µM]
Cc1c(S(=O)(=O)n2ncc3ccc(N4CCNCC4)cc32)sc2ccc(Cl)cc12 [Example 89]	0.024		
CN1CCN(c2cccc3c2ccn3S(=O)(=O)c2ccc(N)cc2)CC1 [Example 36]	0.003		
COc1ccc(S(=O)(=O)n2ccc3c(N4CCN(Cc5cccnc5)CC4)cccc32)cc1OC [Example 50]	0.017		
CC(=O)N1CCN(c2cccc3c2ccn3S(=O)(=O)c2c(Cl)nc3sccn23)CC1 [Example 30]	0.22		
O=S(=O)(c1c(Cl)nc2sccn12)n1ccc2c(N3CCN(Cc4cccnc4)CC3)cccc21 [Example 47]	0.006		
O=S(=O)(c1ccc2ccccc2c1)n1ncc2ccc(N3CCNCC3)cc21 [Example 96]	0.037		
O=S(=O)(c1ccc(Br)s1)n1ncc2cc(N3CCNCC3)ccc21 [Example 81]			0.044
O=S(=O)(c1c(Cl)nc2sccn12)n1ccc2c(N3CCN(Cc4ccncc4)CC3)cccc21 [Example 46]	0.005		
COc1cccc(CN2CCN(c3cccc4c3ccn4S(=O)(=O)c3ccc(OC)c(OC)c3)CC2)c1 [Example 48]	0.014		
O=S(=O)(c1ccc(I)cc1)n1ncc2cc(N3CCNCC3)ccc21 [Example 101]	0.018		
O=S(=O)(c1ccccc1)n1ccc2c(N3CCN(C4=NCCN4)CC3)cccc21 [Example 14, 4-[4-(4,5-Dihydro-1H-imidazol-2-yl)-piperazin-1-yl]-1-(phenylsulfonyl)-1H-indole]			0.024
O=S(=O)(c1cc(Cl)c(Cl)s1)n1ncc2ccc(N3CCNCC3)cc21 [Example 91]	0.006		
O=S(=O)(c1ccccc1)n1ncc2c(N3CCNCC3)cccc21 [Example 58, 1-(Phenylsulfonyl)-4-(1-piperazinyl)-1H-indazole hydrochloride]			0.0003
Nc1ccc(S(=O)(=O)n2ccc3cc(N4CCNCC4)ccc32)cc1 [Example 73, 1-(4-Aminophenylsulfonyl)-5-piperazin-1-yl-1H-indole hydrochloride]	0.034		
O=S(=O)(c1ccccc1Br)n1ccc2c(N3CCNCC3)cccc21 [Example 2]			0.002
COc1ccc(S(=O)(=O)n2ccc3c(N4CCN(Cc5ccncc5)CC4)cccc32)cc1OC [Example 49]	0.01		
O=S(=O)(c1cc(Cl)c(Cl)s1)n1ncc2cc(N3CCNCC3)ccc21 [Example 90]	0.03		
O=S(=O)(c1ccc(Br)cc1)n1ncc2cc(N3CCNCC3)ccc21 [Example 79]	0.019		
Nc1ccc(S(=O)(=O)n2ccc3c(N4CCN(Cc5ccc(Cl)s5)CC4)cccc32)cc1 [Example 37]	0.059		
COc1ccc(S(=O)(=O)n2ccc3c(N4CCN(Cc5cccc([N+](=O)[O-])c5)CC4)cccc32)cc1OC [Example 33]	0.045		
O=S(=O)(c1c(Cl)nc2sccn12)n1ccc2c(N3CCNCC3)cccc21 [Example 3]			0.001
Cc1nn(C)c(Cl)c1S(=O)(=O)n1ccc2cc(N3CCNCC3)ccc21 [Example 86]	0.044		
CCCCOc1ccc(S(=O)(=O)n2ccc3cc(N4CCNCC4)ccc32)cc1 [Example 83]	0.038		
Nc1ccc(S(=O)(=O)n2ccc3c(N4CCN(C5=NCCN5)CC4)cccc32)cc1 [Example 18]	0.006		
Nc1ccc(S(=O)(=O)n2ccc3c(N4CCNCC4)cccc32)cc1 [Example 5]			0.001

The next lines start with results.

Ki [1, 2] [µM]	melting point [°C]	SMILES	Ki [1] [µM]
0.001		O=S(=O)(c1ccccc1Br)n1ccc2c(N3CCN(Cc4cccnc4)CC3)cccc21 [Example 44]	
0.025		Nc1ccc(S(=O)(=O)n2ccc3c(N4CCN(Cc5ccncc5)CC4)cccc32)cc1 [Example 52]	
0.001		O=S(=O)(c1ccccc1)n1ncc2c(N3CCN(CCc4ccccc4)CC3)cccc21 [Example 59, 4-[4-(2-phenylethyl)piperazin-1-yl]-1-(phenylsulfonyl)-1H-indazole hydrochloride]	
0.081	235 to 237	O=S(=O)(c1cc(Cl)c(Cl)s1)n1ncc2c(N3CCN(Cc4ccccc4)CC3)cccc21 [Example 71]	
0.056	215 to 217	Cc1ccc(S(=O)(=O)n2ncc3c(N4CCN(Cc5ccccc5)CC4)cccc32)cc1 [Example 72]	
0.007		O=S(=O)(c1ccccc1)n1ccc2c(N3CCN(Cc4cccnc4)CC3)cccc21 [Example 41]	
0.006	188 to 190	O=S(=O)(c1ccccc1)n1ncc2c(N3CCN(CCCc4ccccc4)CC3)cccc21 [Example 63]	
0.005		Nc1ccc(S(=O)(=O)n2ccc3c(N4CCN(Cc5cccc([N+](=O)[O-])c5)CC4)cccc32)cc1 [Example 38]	
0.087	238 to 239	O=S(=O)(c1ccc(Cl)cc1)n1ncc2c(N3CCN(Cc4ccccc4)CC3)cccc21 [Example 67]	
0.004		COc1cccc(CN2CCN(c3cccc4c3ccn4S(=O)(=O)c3ccccc3Br)CC2)c1 [Example 42]	
0.084	240 to 241	O=S(=O)(c1ccc(F)cc1)n1ncc2c(N3CCN(Cc4ccccc4)CC3)cccc21 [Example 66]	
0.116	206 to 209	COc1ccc(S(=O)(=O)n2ncc3c(N4CCN(Cc5ccccc5)CC4)cccc32)cc1 [Example 69]	
0.007		COc1cccc(CN2CCN(c3cccc4c3ccn4S(=O)(=O)c3ccc(N)cc3)CC2)c1 [Example 51]	
0.007		O=S(=O)(c1ccccc1Br)n1ccc2c(N3CCN(Cc4ccncc4)CC3)cccc21 [Example 43]	
0.015		Nc1ccc(S(=O)(=O)n2ccc3c(N4CCN(Cc5ccccc5)CC4)cccc32)cc1 [Example 35]	
0.012	202 to 205	O=C(CN1CCN(c2cccc3c2cnn3S(=O)(=O)c2ccccc2)CC1)c1ccccc1 [Example 62]	
0.172	233 to 235	O=S(=O)(C=Cc1ccccc1)n1ncc2c(N3CCN(Cc4ccccc4)CC3)cccc21 [Example 65]	
0.004		Nc1ccc(S(=O)(=O)n2ccc3c(N4CCN(Cc5cccnc5)CC4)cccc32)cc1 [Example 53]	
0.004		O=S(=O)(c1ccccc1)n1ccc2c(N3CCN(Cc4ccncc4)CC3)cccc21 [Example 40]	
0.251	229 to 231	O=S(=O)(c1ccc(OC(F)(F)F)cc1)n1ncc2c(N3CCN(Cc4ccccc4)CC3)cccc21 [Example 70]	
0.003		O=C(CCCN1CCN(c2cccc3c2cnn3S(=O)(=O)c2ccccc2)CC1)c1ccc(F)cc1 [Example 61]	
0.014		O=S(=O)(c1ccccc1)n1ncc2c(N3CCN(Cc4ccccc4)CC3)cccc21 [Example 57, 4-(4-Benzylpiperazin-1-yl)-1-(phenylsulfonyl)-1H-indazole hydrochloride]	
0.002	258 to 260	CCCN1CCN(c2cccc3c2cnn3S(=O)(=O)c2ccccc2)CC1 [Example 64]	
0.056		O=S(=O)(c1c(Cl)nc2sccn12)n1ccc2c(N3CCN(Cc4ccccc4)CC3)cccc21 [Example 27]	
0.306	184 to 186	O=S(=O)(c1ccccc1)n1ncc2c(N3CCN(CCOc4ccc(F)cc4)CC3)cccc21 [Example 60]	
